# Measurements as given in patent publication US10815238B2, “Antimicrobial compounds and methods of making and using the same” (BIOVERSYS AG, priority 2013, dated 2020).
# Tests used:
# [1] = tested on: Eschericia coli (E. coli) strain ATCC25922; assay: Standard microdilution assay, MIC against E. coli ATCC25922; type: cell-based; conditions: Escherichia coli; E. coli strain ATCC25922, standard microdilution assay; cutoff 16 micrograms/mL; read-out: MIC E. Coli
# Procedure, shortened: (§1)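 MIC determined by broth microdilution following CLSI protocols, with reference strains run in parallel for quality control. Activity scored +/− at a cutoff of 16 micrograms/mL.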
# [2] = tested on: Staphylococcus aureus (S. aureus) 11540 strain; assay: Standard microdilution assay, MIC against S. aureus 11540; type: cell-based; conditions: S. aureus 11540 strain, standard microdilution assay, cutoff 16 micrograms/mL, read-out: MIC S. aureus
# Procedure, shortened: as §1
SMILES,MIC [1],MIC [2]
CCOP(=O)(OCC)OC[C@H](N)CCCc1cc(Cl)c(F)c(-c2cc3cn(-c4ccc([C@H](C)NCCCNC(=N)N)cc4)c(=O)nc3[nH]2)c1 [Compound 467],< 16 µg/mL,< 16 µg/mL
C[C@H](N)CCCc1cc(Cl)c(F)c(-c2cc3cn(-c4ccc(C5(CCN)CN(C(=N)N)C5)cc4)c(=O)nc3[nH]2)c1 [Compound 403],< 16 µg/mL,< 16 µg/mL
C[C@H](N)CCCc1cc(Cl)c(F)c(-c2cc3cn(-c4ccc([C@@H]5CCC[C@@H](CCC6CC6)N5)cc4)c(=O)nc3[nH]2)c1 [Compound 532],> 16 µg/mL,< 16 µg/mL
C[C@H](N)CCCc1cc(Cl)c(F)c(-c2cc3cn(-c4ccc([C@@H]5CCC[C@@H](Cc6nnc[nH]6)N5)cc4)c(=O)nc3[nH]2)c1 [Compound 496],> 16 µg/mL,> 16 µg/mL
COC(=O)[C@H](CCNC(=N)N)N[C@@H](C)c1ccc(-n2cc3cc(-c4cc(CCC[C@H](C)N)cc(Cl)c4F)[nH]c3nc2=O)cc1 [Compound 356],< 16 µg/mL,< 16 µg/mL
C[C@H](N)CCCc1cccc(-c2cc3cn(-c4ccc([C@@H]5CCC[C@@H](CCNC(=N)N)N5)cc4)c(=O)nc3[nH]2)c1 [Compound 531],< 16 µg/mL,< 16 µg/mL
C[C@H](N)CCCc1cc(OC(F)(F)F)c(F)c(-c2cc3cn(-c4ccc(C(O)CNC(=N)N)cc4)c(=O)nc3[nH]2)c1 (stereo partly drawn) [Compound 472],< 16 µg/mL,< 16 µg/mL
C[C@H](N)CCCc1cc(-c2cc3cn(-c4ccc([C@@H]5CCC[C@@H](CCNC(=N)N)N5)cc4)c(=O)nc3[nH]2)cc(C(F)(F)F)c1 [Compound 486],< 16 µg/mL,< 16 µg/mL
C[C@H](N)CCCc1cc(Cl)c(F)c(-c2cc3cn(-c4ccc([C@@H]5CCC[C@@H](CCCNC(=N)N)N5)cc4)c(=O)nc3[nH]2)c1 [Compound 556],< 16 µg/mL,< 16 µg/mL
C[C@H](N)CCCc1cc(Cl)c(F)c(-c2cc3cn(-c4ccc([C@@H]5CCC[C@@H](CCNc6nccs6)N5)cc4)c(=O)nc3[nH]2)c1 [Compound 535],> 16 µg/mL,< 16 µg/mL
C[C@H](N)CCCc1cc(OC(F)(F)F)c(F)c(-c2cc3cn(-c4ccc([C@H](C)NCC[C@@H](Cn5cc(CN)nn5)NC(=N)N)cc4)c(=O)nc3[nH]2)c1 [Compound 327],< 16 µg/mL,< 16 µg/mL
COC[C@H](CCN[C@@H](C)c1ccc(-n2cc3cc(-c4cc(CCC[C@H](C)N)cc(OC(F)(F)F)c4F)[nH]c3nc2=O)cc1)NC(=N)N [Compound 346],< 16 µg/mL,< 16 µg/mL
C[C@H](N)CCCc1cc(Cl)c(F)c(-c2cc3cn(-c4ccc([C@H](N)CCCNC(=N)N)cc4)c(=O)nc3[nH]2)c1 [Compound 456],< 16 µg/mL,< 16 µg/mL
C[C@H](N)CCCc1cc(Cl)c(F)c(-c2cc3cn(-c4ccc([C@H]5CCC[C@H](CCNc6ncc[nH]6)N5)cc4)c(=O)nc3[nH]2)c1 [Compound 542],< 16 µg/mL,< 16 µg/mL
C[C@H](N)CCCc1cc(Cl)c(F)c(-c2cc3cn(-c4ccc(C5(CCNC(=N)N)CN(C(=N)N)C5)cc4)c(=O)nc3[nH]2)c1 [Compound 404],< 16 µg/mL,< 16 µg/mL
C[C@H](N)CCCc1cc(Cl)c(F)c(-c2cc3cn(-c4ccc([C@@H](N)CCNC(=N)N)cc4)c(=O)nc3[nH]2)c1 [Compound 427],< 16 µg/mL,< 16 µg/mL
CC#C[C@H](CCNC(=N)N)NCc1ccc(-n2cc3cc(-c4cc(CCC[C@H](C)N)cc(Cl)c4F)[nH]c3nc2=O)cc1 [Compound 506],< 16 µg/mL,< 16 µg/mL
C[C@H](N)CCCc1cc(Cl)c(F)c(-c2cc3cn(-c4ccc([C@@H]5CCC[C@@H](CCn6ccnn6)N5)cc4)c(=O)nc3[nH]2)c1 [Compound 478],> 16 µg/mL,> 16 µg/mL
C[C@H](N)CCCc1cc(Cl)c(F)c(-c2cc3cn(-c4ccc([C@H](N)CCN)cc4)c(=O)nc3[nH]2)c1 [Compound 440],< 16 µg/mL,< 16 µg/mL

# Continued, values first:
MIC [1],MIC [2],SMILES
< 16 µg/mL,< 16 µg/mL,C[C@H](N)CCCc1cc(OC(F)(F)F)c(F)c(-c2cc3cn(-c4ccc(C5=NCCCN5)cc4)c(=O)nc3[nH]2)c1 [Compound 565]
< 16 µg/mL,< 16 µg/mL,C[C@H](N)CCCc1cc(Cl)c(F)c(-c2cc3cn(-c4ccc(CN[C@H](CCNC(=N)N)CNS(C)(=O)=O)cc4)c(=O)nc3[nH]2)c1 [Compound 544]
< 16 µg/mL,< 16 µg/mL,C=C[C@H](C[C@H](C)NCc1ccc(-n2cc3cc(-c4cc(CCC[C@H](C)N)cc(Cl)c4F)[nH]c3nc2=O)cc1)NC(=N)N [Compound 338]
< 16 µg/mL,< 16 µg/mL,C=C[C@@H](CCNC(=N)N)NCc1ccc(-n2cc3cc(-c4cc(CCC[C@H](C)N)cc(Cl)c4F)[nH]c3nc2=O)cc1 [Compound 387]
< 16 µg/mL,< 16 µg/mL,C[C@H](N)CCCc1cc(Cl)c(F)c(-c2cc3cn(-c4ccc([C@H](N)CCNC(=N)N)cc4)c(=O)nc3[nH]2)c1 [Compound 442]
< 16 µg/mL,< 16 µg/mL,C[C@H](N)CCCc1cc(OC(F)(F)F)c(F)c(-c2cc3cn(-c4ccc([C@H](N)CCNC(=N)N)cc4)c(=O)nc3[nH]2)c1 [Compound 443]
< 16 µg/mL,< 16 µg/mL,C[C@H](N)CCCc1cc(Cl)c(F)c(-c2cc3cn(-c4ccc(CN[C@H](C)C[C@H](CN)NC(=N)N)cc4)c(=O)nc3[nH]2)c1 [Compound 397]
< 16 µg/mL,< 16 µg/mL,COC[C@H](CCNC(=N)N)N[C@@H](C)c1ccc(-n2cc3cc(-c4cc(CCC[C@H](C)N)cc(Cl)c4F)[nH]c3nc2=O)cc1 [Compound 355]
< 16 µg/mL,< 16 µg/mL,C[C@H](N)CCCc1cc(Cl)c(F)c(-c2cc3cn(-c4ccc([C@@H]5CCO[C@@H](CCN)C5)cc4)c(=O)nc3[nH]2)c1 [Compound 525]
< 16 µg/mL,< 16 µg/mL,C[C@H](N)CCN1CCC(c2cc3cn(-c4ccc([C@@H]5CCC[C@@H](CCNC(=N)N)N5)cc4)c(=O)nc3[nH]2)C1 (stereo partly drawn) [Compound 579]
< 16 µg/mL,< 16 µg/mL,C[C@H](N)CCCc1cc(Cl)c(F)c(-c2cc3cn(-c4ccc(CN[C@H](C)C[C@@H](CN)NC(=N)N)cc4)c(=O)nc3[nH]2)c1 [Compound 401]
< 16 µg/mL,< 16 µg/mL,C[C@H](N)CCCc1cc(Cl)c(F)c(-c2cc3cn(-c4ccc(C(=N)NC5CCCC5)cc4)c(=O)nc3[nH]2)c1 [Compound 505]
< 16 µg/mL,< 16 µg/mL,C[C@H](N)CCCc1cc(OC(F)(F)F)c(F)c(-c2cc3cn(-c4ccc(CN[C@H](C)C[C@H](CCO)NC(=N)N)cc4)c(=O)nc3[nH]2)c1 [Compound 396]
< 16 µg/mL,< 16 µg/mL,N=C(NC1CC1)c1ccc(-n2cc3cc(-c4ccc(S(=O)(=O)NC5CCNCC5)cc4)[nH]c3nc2=O)cc1 [Compound 502]
< 16 µg/mL,< 16 µg/mL,C[C@H](N)CCCc1cc(OC(F)(F)F)c(F)c(-c2cc3cn(-c4ccc([C@@H](N)CCCN)cc4)c(=O)nc3[nH]2)c1 [Compound 411]
< 16 µg/mL,< 16 µg/mL,C=C[C@H](C[C@@H](C)NCc1ccc(-n2cc3cc(-c4cc(CCC[C@H](C)N)cc(Cl)c4F)[nH]c3nc2=O)cc1)NC(=N)N [Compound 371]
< 16 µg/mL,< 16 µg/mL,C[C@H](N)CCCc1cc(Cl)c(F)c(-c2cc3cn(-c4ccc([C@@H]5COC[C@H](CCN)N5)cc4)c(=O)nc3[nH]2)c1 [Compound 385]
